Reference: US20230002373A1, “COMPOUNDS AND COMPOSITIONS FOR TREATING CONDITIONS ASSOCIATED WITH STING ACTIVITY” (IFM Due, Inc., priority 2019, published 2023)

Molecular target: T1, hSTING (Homo sapiens, UniProt Q86WV6, G230A/H232R/R293Q/R71H)
T1 construct: host or cells: THP1-Dual KO-IFNAR2 cells
Experiment: STING reporter assay (luciferase) in THP1-Dual KO-IFNAR2 cells stimulated with 2′3′cGAMP
Type: cell-based
Settings: 15 μM 2′3′cGAMP, 24 h
Description: STING pathway activation by the compounds described herein was measured using THP1-Dual™ cells (KO-IFNAR2).
THP1-Dual™ KO-IFNAR2 Cells (obtained from invivogen) were maintained in RPMI, 10% FCS, 5 ml P/S, 2 mM L-glut, 10 mM Hepes, and 1 mM sodium pyruvate. Compounds were spotted in empty 384 well tissue culture plates (Greiner 781182) by Echo for a final concentration of 0.0017-100 μM. Cells were plated into the TC plates […], 2×10E6 cells/mL. For activation with STING ligand, 2′3′cGAMP (MW 718.38, obtained from Invivogen), was prepared in Optimem media.
The following solutions were prepared for each 1×384 plate: • Solution A: 2 mL Optimem with one of the following stimuli: • 60 μL of 10 mM 2′3′cGAMP->150 μM stock • Solution B: 2 mL Optimem with 60 μL Lipofectamine 2000->Incubate 5 min at RT
2 mL of solution A and 2 ml Solution B was mixed and incubated for 20 min at room temperature (RT). 20 uL of transfection solution (A+B) was added on top of the plated cells, with a final 2′3′cGAMP concentration of 15 μM. The plates were then centrifuged immediately at 340 g for 1 minute, after which they were incubated at 37° C., 5% CO2, >98% humidity for 24 h. Luciferase reporter activity was then measured. EC50 values were calculated by using standard methods known in the art.
Luciferase reporter assay: 10 μL of supernatant from the assay was transferred to white 384-plate with flat bottom and squared wells. One pouch of QUANTI-Luc™ Plus was dissolved in 25 mL of water. 100 μL of QLC Stabilizer per 25 mL of QUANTI-Luc™ Plus solution was added. 50 μL of QUANTI-Luc™ Plus/QLC solution per well was then added. Luminescence was measured on a Platereader (e.g., Spectramax I3X (Molecular Devices GF3637001)).
Luciferase reporter activity was then measured. EC50 values were calculated by using standard methods known in the art.

T1 sequence (Q86WV6 whole entry R71H/G230A/H232R/R293Q): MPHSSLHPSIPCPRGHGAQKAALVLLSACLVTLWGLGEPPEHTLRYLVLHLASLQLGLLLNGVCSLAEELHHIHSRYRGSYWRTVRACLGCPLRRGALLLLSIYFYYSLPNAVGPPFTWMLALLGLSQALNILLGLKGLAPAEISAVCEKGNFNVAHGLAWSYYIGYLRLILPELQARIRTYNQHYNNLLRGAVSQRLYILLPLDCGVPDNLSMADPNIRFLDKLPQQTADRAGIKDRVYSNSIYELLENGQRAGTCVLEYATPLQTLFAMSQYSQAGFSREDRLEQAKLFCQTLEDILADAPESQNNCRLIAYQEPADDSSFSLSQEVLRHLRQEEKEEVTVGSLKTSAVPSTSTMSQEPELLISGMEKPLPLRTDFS

Q: How did the EC50 (class symbols) turn out when `Cc1c(CNC(=O)C(=O)Nc2c[nH]c3cccnc23)cccc1C(F)(F)F` [Compound 138, N1-(2-methyl-3-(trifluoromethyl)benzyl)-N2-(1H-pyrrolo[3,2-b]pyridin-3-yl)oxalamide] was run?
A: Its EC50 is 200 to 1000 nM.

Q: For `O=C(NCCc1ncc(C(F)(F)F)cc1Cl)C(=O)Nc1c[nH]c2cccnc12` [Compound 139, N1-(2-(3-chloro-5-(trifluoromethyl)pyridin-2-yl)ethyl)-N2-(1H-pyrrolo[3,2-b]pyridin-3-yl)oxalamide], which EC50 (numeric bounds) is on record?
A: Its EC50 is greater than 30000 nM.

Q: With `O=C(NCc1ccc(Cl)cc1C(F)(F)F)C(=O)Nc1c[nH]c2cccnc12` [Compound 140, N1-(4-chloro-2-(trifluoromethyl)benzyl)-N2-(1H-pyrrolo[3,2-b]pyridin-3-yl)oxalamide] as the compound, how does the EC50 (class symbols) read?
A: Its EC50 is 1000 to 5000 nM.

Q: `O=C(NCc1cccc(N2CCCCC2)c1)C(=O)Nc1c[nH]c2cccnc12` [Compound 141, N1-(3-(piperidin-1-yl)benzyl)-N2-(1H-pyrrolo[3,2-b]pyridin-3-yl)oxalamide] was tested. Which EC50 (numeric bounds) did it give?
A: Its EC50 is greater than 30000 nM.

Q: With `Cc1c(CNC(=O)C(=O)Nc2c[nH]c3ccncc23)cccc1C(F)(F)F` [Compound 142, N1-(2-methyl-3-(trifluoromethyl)-benzyl)-N2-(1H-pyrrolo[3,2-c]pyridin-3-yl)oxalamide] as the compound, how does the EC50 (class symbols) read?
A: The EC50 was 200 to 1000 nM.

Q: `CC(NC(=O)C(=O)Nc1c[nH]c2cccnc12)c1ccc(C(F)(F)F)cc1` (stereo not drawn) [Compound 143, N1-(1H pyrrolo[3,2-b]pyridin-3-yl)-N2-(1-(4-(trifluoromethyl)phenyl)ethyl)oxalamide] was tested. Which EC50 (class symbols) did it give?
A: Its EC50 is 1000 to 5000 nM.

Q: Which EC50 (class symbols) does the source give for `COc1ccc(CNC(=O)C(=O)Nc2c[nH]c3cccnc23)cc1C(F)(F)F` [Compound 144, N1-(4-methoxy-3-(trifluoromethyl)benzyl)-N2-(1H-pyrrolo[3,2-b]pyridin-3-yl)oxalamide] here?
A: The EC50 was 1000 to 5000 nM.

Q: Which EC50 (class symbols) does the source give for `O=C(NCc1ccc(Cl)c(C(F)(F)F)c1)C(=O)Nc1c[nH]c2cccnc12` [Compound 145, N1-(4-chloro-3-(trifluoromethyl)benzyl)-N2-(1H-pyrrolo[3,2-b]pyridin-3-yl)oxalamide] here?
A: Its EC50 is 1000 to 5000 nM.

Q: With `O=C(NCC1CCCC(F)(F)C1)C(=O)Nc1c[nH]c2ccncc12` (stereo not drawn) [Compound 146, N1-((3,3-difluorocyclohexyl)-methyl)-N2-(1H-pyrrolo[3,2-c]pyridin-3-yl)oxalamide] as the compound, how does the EC50 (numeric bounds) read?
A: The EC50 was greater than 30000 nM.

Q: Which EC50 (class symbols) does the source give for `O=C(NCc1ccc(F)c(OC(F)(F)F)c1)C(=O)Nc1c[nH]c2ccncc12` [Compound 148, N1-(4-fluoro-3-(trifluoromethoxy)-benzyl)-N2-(1H-pyrrolo[3,2-c]pyridin-3-yl)oxalamide] here?
A: The EC50 was 200 to 1000 nM.

Q: `O=C(NCCc1cccc(C(F)(F)F)c1)C(=O)Nc1c[nH]c2cccnc12` [Compound 149, N1-(1H-pyrrolo[3,2-b]pyridin-3-yl)-N2-(3-(trifluoromethyl)phenethyl)oxalamide] was tested. Which EC50 (numeric bounds) did it give?
A: Its EC50 is greater than 30000 nM.

Q: `O=C(Nc1ccc(OCC(F)(F)F)nc1)C(=O)Nc1c[nH]c2cccnc12` [Compound 150, N1-(1H-pyrrolo[3,2-b]pyridin-3-yl)-N2-(6-(2,2,2-trifluoroethoxy)pyridin-3-yl)oxalamide] was tested. Which EC50 (numeric bounds) did it give?
A: The EC50 was greater than 30000 nM.

Q: How did the EC50 (numeric bounds) turn out when `O=C(NCc1cccc(OC(F)(F)F)c1)C(=O)Nc1c[nH]c2cccnc12` [Compound 151, N1-(1H pyrrolo[3,2-b]pyridin-3-yl)-N2-(3-(trifluoro-methoxy)benzyl)oxalamide] was run?
A: The EC50 was greater than 30000 nM.

Q: For `O=C(NCCc1ccc(C(F)(F)F)cc1)C(=O)Nc1c[nH]c2ccncc12` [Compound 153, N1-(1H-pyrrolo[3,2-c]pyridin-3-yl)-N2-(4-(trifluoromethyl)-phenethyl)-oxalamide], which EC50 (class symbols) is on record?
A: Its EC50 is 200 to 1000 nM.

Q: Which EC50 (numeric bounds) does the source give for `O=C(NCC1CCc2ccccc2O1)C(=O)Nc1c[nH]c2ccncc12` (stereo not drawn) [Compound 154, N1-(chroman-2-ylmethyl)-N2-(1H-pyrrolo[3,2-c]pyridin-3-yl)oxalamide] here?
A: Its EC50 is greater than 30000 nM.

Q: Which EC50 (numeric bounds) does the source give for `O=C(NCC1(c2ccccc2)CC1)C(=O)Nc1c[nH]c2ccncc12` [Compound 156, N1-((1-phenylcyclopropyl)-methyl)-N2-(1H-pyrrolo[3,2-c]pyridin-3-yl)oxalamide] here?
A: The EC50 was greater than 30000 nM.

Q: `Cc1ccc(OCCNC(=O)C(=O)Nc2c[nH]c3ccncc23)cc1C` [Compound 157, N1-(2-(3,4-dimethylphenoxy)ethyl)-N2-(1H-pyrrolo[3,2-c]pyridin-3-yl)oxalamide] was tested. Which EC50 (class symbols) did it give?
A: The EC50 was 5000 to 100000 nM.

Q: With `O=C(NCc1cccc2c1OC(F)(F)O2)C(=O)Nc1c[nH]c2ccncc12` [Compound 158, N1-((2,2-difluorobenzo-[d][1,3]dioxol-4-yl)methyl)-N2-(1H-pyrrolo[3,2-c]pyridin-3-yl)oxalamide] as the compound, how does the EC50 (class symbols) read?
A: Its EC50 is 1000 to 5000 nM.

Q: Which EC50 (class symbols) does the source give for `O=C(NCCOc1ccc(C(F)(F)F)cc1)C(=O)Nc1c[nH]c2ccncc12` [Compound 159, N1-(1H-pyrrolo[3,2-c]pyridin-3-yl)-N2-(2-(4-(trifluoromethyl)-phenoxy)ethyl)oxalamide] here?
A: The EC50 was 1000 to 5000 nM.

Q: How did the EC50 (numeric bounds) turn out when `O=C(NCC1CCC(F)(F)CC1)C(=O)Nc1c[nH]c2ccncc12` [Compound 160, N1-((4,4-difluorocyclohexyl)-methyl)-N2-(1H-pyrrolo[3,2-c]pyridin-3-yl)oxalamide] was run?
A: Its EC50 is greater than 30000 nM.

Q: With `O=C(NCCC1(C(F)(F)F)CC1)C(=O)Nc1c[nH]c2ccncc12` [Compound 161, N1-(1H-pyrrolo[3,2-c]pyridin-3-yl)-N2-(2-(1-(trifluoromethyl)-cyclopropyl)-ethyl)oxalamide] as the compound, how does the EC50 (numeric bounds) read?
A: The EC50 was greater than 30000 nM.

Q: `Cc1cc(F)c(Cl)cc1NC(=O)C(=O)Nc1c[nH]c2ccncc12` [Compound 162, N1-(5-chloro-4-fluoro-2-methylphenyl)-N2-(1H-pyrrolo[3,2-c]pyridin-3-yl)oxalamide] was tested. Which EC50 (class symbols) did it give?
A: Its EC50 is 1000 to 5000 nM.

Q: How did the EC50 (numeric bounds) turn out when `O=C(NCC(F)(F)c1ccccc1)C(=O)Nc1c[nH]c2ccncc12` [Compound 163, N1-(2,2-difluoro-2-phenylethyl)-N2-(1H-pyrrolo[3,2-c]pyridin-3-yl)oxalamide] was run?
A: Its EC50 is greater than 30000 nM.

Q: For `CC(CNC(=O)C(=O)Nc1c[nH]c2ccncc12)Oc1ccc(C(F)(F)F)cc1` (stereo not drawn) [Compound 164, N1-(1H-pyrrolo[3,2-c]pyridin-3-yl)-N2-(2-(4-(trifluoromethyl)-phenoxy)propyl)-oxalamide], which EC50 (class symbols) is on record?
A: Its EC50 is 1000 to 5000 nM.

Q: With `COc1ccc(CNC(=O)C(=O)Nc2c[nH]c3ccncc23)cc1C(F)(F)F` [Compound 165, N1-(4-methoxy-3-(trifluoromethyl)-benzyl)-N2-(1H-pyrrolo[3,2-c]pyridin-3-yl)oxalamide] as the compound, how does the EC50 (class symbols) read?
A: The EC50 was 200 to 1000 nM.

Q: Which EC50 (class symbols) does the source give for `O=C(NCCc1ncc(C(F)(F)F)cc1Cl)C(=O)Nc1c[nH]c2ccncc12` [Compound 166, N1-(2-(3-chloro-5-(trifluoromethyl)-pyridin-2-yl)ethyl)-N2-(1H-pyrrolo[3,2-c]pyridin-3-yl)oxalamide] here?
A: Its EC50 is 5000 to 100000 nM.

Q: Which EC50 (class symbols) does the source give for `O=C(NCc1ccc(Cl)cc1C(F)(F)F)C(=O)Nc1c[nH]c2ccncc12` [Compound 167, N1-(4-chloro-2-(trifluoromethyl)-benzyl)-N2-(1H-pyrrolo[3,2-c]pyridin-3-yl)oxalamide] here?
A: The EC50 was 200 to 1000 nM.

Q: With `COc1ccc(CNC(=O)C(=O)Nc2c[nH]c3ccncc23)cc1Cl` [Compound 168, N1-(3-chloro-4-methoxybenzyl)-N2-(1H-pyrrolo[3,2-c]pyridin-3-yl)oxalamide] as the compound, how does the EC50 (numeric bounds) read?
A: Its EC50 is greater than 30000 nM.

Q: With `O=C(NCc1cccc(C(F)(F)F)c1F)C(=O)Nc1c[nH]c2ccncc12` [Compound 170, N1-(2-fluoro-3-(trifluoromethyl)-benzyl)-N2-(1H-pyrrolo[3,2-c]pyridin-3-yl)oxalamide] as the compound, how does the EC50 (class symbols) read?
A: Its EC50 is 1000 to 5000 nM.

Q: How did the EC50 (class symbols) turn out when `O=C(NCc1ccc(Cl)c(C(F)(F)F)c1)C(=O)Nc1c[nH]c2ccncc12` [Compound 171, N1-(4-chloro-3-(trifluoromethyl)-benzyl)-N2-(1H-pyrrolo[3,2-c]pyridin-3-yl)oxalamide] was run?
A: Its EC50 is 200 to 1000 nM.

Q: With `O=C(NCc1ccccc1C(F)(F)F)C(=O)Nc1c[nH]c2ccncc12` [Compound 172, N1-(1H-pyrrolo[3,2-c]pyridin-3-yl)-N2-(2-(trifluoromethyl)-benzyl)-oxalamide] as the compound, how does the EC50 (class symbols) read?
A: The EC50 was 5000 to 100000 nM.

Q: `O=C(NCc1cccc(OC(F)(F)F)c1)C(=O)Nc1c[nH]c2ccncc12` [Compound 173, N1-(1H-pyrrolo[3,2-c]pyridin-3-yl)-N2-(3-(trifluoromethoxy)-benzyl)oxalamide] was tested. Which EC50 (class symbols) did it give?
A: The EC50 was 1000 to 5000 nM.

Q: `Cc1ccc(CNC(=O)C(=O)Nc2c[nH]c3cc(F)cnc23)cc1C(F)(F)F` [Compound 174] was tested. Which EC50 (class symbols) did it give?
A: The EC50 was 200 to 1000 nM.

Q: With `Cc1c(NC(=O)C(=O)Nc2c[nH]c3ccncc23)cccc1C(F)(F)F` [Compound 175, N1-(2-methyl-3-(trifluoromethyl)-phenyl)-N2-(1H-pyrrolo[3,2-c]pyridin-3-yl)oxalamide] as the compound, how does the EC50 (class symbols) read?
A: Its EC50 is 1000 to 5000 nM.

Q: How did the EC50 (class symbols) turn out when `Cc1ccc2[nH]cc(NC(=O)C(=O)Nc3cnc(N4CCC(F)(F)CC4)c(Cl)c3)c2n1` [Compound 195, N-(5-chloro-6-(4,4-difluoropiperidin-1-yl)pyridin-3-yl)-N′-(5-methyl-1H-pyrrolo[3,2-b]pyridin-3-yl)oxalamide] was run?
A: The EC50 was 1000 to 5000 nM.

Q: For `O=C(Nc1c[nH]c2ncc(F)cc12)C(=O)NC1CCC2(CCCC2)CC1` [Compound 198, N-(5-fluoro-1H-pyrrolo[2,3-b]pyridin-3-yl)-N′-(spiro[4.5]decan-8-yl)oxalamide], which EC50 (class symbols) is on record?
A: The EC50 was 200 to 1000 nM.
